Experimental findings from PMC7576608, “Mechanisms of telomerase inhibition by oxidized and therapeutic dNTPs” (Nature Communications, 2020) are described below.

Experiment [1] has as its target T1, telomerase (Homo sapiens, UniProt O14746). Description: Telomerase repeat processivity IC50: modified dNTP titrated into reactions with all four natural dNTPs. Type of experiment: biochemical. More on the design: made in house; anti-FLAG immunopurification, eluted with 3xFLAG peptide. The conditions noted are these: for Slope (line fit of ln(100-%LB) vs # telomere repeats) / YIntercept (line fit of ln(100-%LB) vs # telomere repeats): replicates n1, n2; for ln(100-%LB): n1, n2. The source says: In order to better understand the ability of modified dNTPs to compete with natural dNTPs for telomerase utilization, we added modified dNTPs to reactions containing all four natural dNTPs. […] The calculated IC50 determines the concentration required to reduce repeat processivity in the bulk reactions by half. However, it is important to note that bulk experiments cannot distinguish effects on individual telomeres, since extended telomeres mask unextended telomeres. Incorporation of a chain terminator during any step will terminate extension of the affected telomere, and just five critically short telomeres are sufficient to trigger senescence. Therefore, repeat processivity IC50 values are not necessarily an indicator of the inhibitory potency, but provide information on selectivity for modified dNTPs compared to natural dNTPs. […] The ability to purify sufficient quantities of tcTERT enables characterization of the catalytic nucleotide addition by pre-steady-state single turnover kinetics using a defined DNA–RNA primer–template substrate. The catalytic efficiency of incorporating a single dNTP is measured by dividing the observed nucleotide incorporation rate constant, kpol, by the equilibrium dissociation constant for dNTP binding to the tcTERT–primer–template complex (Kd)[44].
The reactions were started by the addition of 3 μl of immunopurified telomerase eluent, incubated at 37 °C for 1 h, then terminated with 2 μl of […] and heat inactivated at 65 °C for 20 min. An equal volume of loading buffer (94% formamide, 0.1× TBE, 0.1% bromophenol blue, 0.1% xylene cyanol) was added to the reaction eluent. The samples were heat denatured for 10 min at 100 °C and loaded onto a 14% denaturing acrylamide gel (7 M urea, 1× TBE) and electrophoresed for 90 min at constant 38 W. Samples were imaged using a Typhoon phosphorimager (GE Healthcare). Percent primer extension was calculated with ImageQuant TL 8.2 by measuring the intensity of each product band and dividing by the total radioactivity in the lane or total products, as indicated in the figure legends.
The processivity was calculated as described[40],[67]. Repeat processivity from the direct telomerase extension assays was calculated as R1/2 (equivalent to the half-time for decay in an exponential time course), which represents the median length of DNA product formed, expressed in terms of number of telomere repeats. First, the total volume counts for each product band extend by one or more telomere repeats were obtained using Image Quant TL. The volume counts were then normalized by dividing by the number of radiolabeled guanosines incorporated into the extended products based on the number of repeats added, termed corrected volume (corr vol). The “percent left behind” (%LB) was calculated for each product band by summing the counts for that product band and for every product band below (shorter products), divided by the total counts for the lane, and then multiplied by 100. The natural log of (100−%LB) was calculated and then plotted vs. repeat number for each product length. A linear regression line was fit to the data to determine the slope of the line. The R1/2 value was calculated by dividing −ln(2) by the slope of each fitted line (R1/2 = −ln(2)/slope).
Supplementary Fig 8. IC50 values for telomerase processivity inhibition. Telomerase reactions were conducted with cellular relevant concentrations of all four natural dNTPs and increasing concentrations of the modified dNTP analog from 0 to 10,000 μM to calculate. (a) The natural log of (100-%LB) was plotted vs repeat number. A straight line was fit to the data and the R1/2 value was calculated by dividing –ln(2) by the slope of each line. Plots shown from one experiment are […]

In experiment [2] the target is T1, telomerase. Nature of the experiment: Telomerase extension of 32P-end labeled primers with a single dNTP (percent primer extension). The arrangement: made in house; anti-FLAG immunopurification, eluted with 3xFLAG peptide. Type of experiment: biochemical. The conditions noted are these: for Percent Primer Extension: 50 μM single dNTP. Here is the method: A chain terminating mechanism of inhibition requires that the enzyme adds the modified dNTP to a growing chain, which then blocks further synthesis. […] To test whether telomerase can incorporate other modified dNTPs, and whether the incorporation is chain terminating and/or mutagenic, we conducted direct extension assays in which we radiolabeled the primer and added increasing concentrations (5, 50, and 500 μM) of a single dNTP (Supplementary Figs. 3, 5, 6, and 7). Since modified dNTPs may prefer mispairing, we tested various primers in which the first template base was either rA3, rC1, or rU5 (primer 1, primer 2, and primer 3, respectively), and compared the percent primer extension for each dNTP at the middle 50 μM concentration (Fig. 3). Primers 1 and 2 initiate synthesis at consecutive rA3rA4 or rC1rC2 template bases, respectively, so we could examine both incorporation and extension to the next base. However, the telomerase template lacks tandem rU residues.
Fig. 3 Telomerase insertion of modified dNTPs. Telomerase reactions were conducted with 5 nM ^32P-end labeled primer a Primer 1 (TTAGGG)3, b Primer 2 (GGTTAG)3, or c Primer 3 (AGGGTT)3. Reactions contained cellular-concentration dNTPs (lane 1) or 50 μM of indicated natural dNTP (blue, lanes 2–5), oxidized dNTP (red, lanes 6–8), or therapeutic dNTP (green, lanes 9–11). Products were separated on denaturing gels. […] Letters on the right indicate the template base; P indicates unextended 18-mer primer. Graphs represent the percent of total primers extended. Images are representative of, and data are shown as mean ± s.d. from, three independent experiments. Source data are provided as a Source Data file.
An equal volume of loading buffer (94% formamide, 0.1× TBE, 0.1% bromophenol blue, 0.1% xylene cyanol) was added to the reaction eluent. The samples were heat denatured for 10 min at 100 °C and loaded onto a 14% denaturing acrylamide gel (7 M urea, 1× TBE) and electrophoresed for 90 min at constant 38 W. Samples were imaged using a Typhoon phosphorimager (GE Healthcare). Percent primer extension was calculated with ImageQuant TL 8.2 by measuring the intensity of each product band and dividing by the total radioactivity in the lane or total products, as indicated in the figure legends.
Telomerase reactions were conducted with 5 nM 32P-end labeled primer (a) Primer 1 (TTAGGG)3, (b) Primer 2 (GGTTAG)3, or (c and d) Primer 3 […]
(d) reactions contained 3 µg/µl RNase A. Products were separated on denaturing gels. Letters on the right indicate the template base; P indicates unextended 18-mer primer. Graphs represent the percent of total primers extended for the reactions in panels a – c from one experiment. Panel d is a representative image from three independent experiments. Source data are provided as a Source Data file. […]
Supplementary Fig 4. Time course reactions with telomerase or pol β. (a, b) Telomerase reactions were conducted with 5 nM 32P-end labeled primer (a) Primer 4 (GTTAGG)3 or (b) Primer 2 (GGTTAG)3.
Products were separated on denaturing gels. Letters on the right indicate the template base; P indicates […]
unextended 18-mer primer. […]

Several values for one entry are separate records, joined by “and”; a condition that tells them apart may be missing. Equal entries are not always repeated.

T1 sequence (O14746 whole entry): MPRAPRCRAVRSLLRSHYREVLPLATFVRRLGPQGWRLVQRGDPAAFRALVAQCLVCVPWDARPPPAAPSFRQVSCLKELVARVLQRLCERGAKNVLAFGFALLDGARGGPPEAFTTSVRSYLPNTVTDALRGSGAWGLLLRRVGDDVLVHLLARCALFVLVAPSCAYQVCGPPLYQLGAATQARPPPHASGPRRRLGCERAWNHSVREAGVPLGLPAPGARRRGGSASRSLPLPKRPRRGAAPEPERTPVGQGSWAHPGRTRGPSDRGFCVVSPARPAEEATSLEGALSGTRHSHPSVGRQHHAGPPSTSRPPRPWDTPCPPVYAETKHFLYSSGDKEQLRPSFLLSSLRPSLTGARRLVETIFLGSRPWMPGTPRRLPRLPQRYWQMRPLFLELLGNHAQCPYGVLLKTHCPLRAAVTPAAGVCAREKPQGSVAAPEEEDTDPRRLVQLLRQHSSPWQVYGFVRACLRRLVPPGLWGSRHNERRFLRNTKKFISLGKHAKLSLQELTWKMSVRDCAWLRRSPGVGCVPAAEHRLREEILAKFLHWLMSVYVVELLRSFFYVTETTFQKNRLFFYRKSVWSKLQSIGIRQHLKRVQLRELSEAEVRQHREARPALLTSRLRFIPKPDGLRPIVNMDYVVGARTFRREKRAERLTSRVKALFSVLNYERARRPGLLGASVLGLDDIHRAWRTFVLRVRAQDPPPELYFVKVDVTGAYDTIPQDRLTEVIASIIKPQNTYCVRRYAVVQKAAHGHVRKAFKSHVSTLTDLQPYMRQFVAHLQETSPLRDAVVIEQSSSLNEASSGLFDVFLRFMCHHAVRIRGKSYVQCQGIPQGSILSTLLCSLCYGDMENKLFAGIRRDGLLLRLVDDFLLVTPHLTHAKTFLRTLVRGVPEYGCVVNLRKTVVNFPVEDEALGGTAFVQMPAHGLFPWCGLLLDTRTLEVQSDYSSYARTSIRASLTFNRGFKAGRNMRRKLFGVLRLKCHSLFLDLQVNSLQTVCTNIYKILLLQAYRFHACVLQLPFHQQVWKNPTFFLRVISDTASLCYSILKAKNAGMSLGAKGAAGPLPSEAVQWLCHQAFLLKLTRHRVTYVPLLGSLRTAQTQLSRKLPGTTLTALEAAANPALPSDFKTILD

`Cc1cn(C2CC(N=[N+]=[N-])C(COP(=O)(O)OP(=O)(O)OP(=O)(O)O)O2)c(=O)[nH]c1=O` (stereo not drawn) [AZ-TP]: the “Slope (line fit of ln(100-%LB) vs # telomere repeats)” value at telomerase [1] (8μM) was -0.35 and -0.41; at telomerase [1] (32μM), -0.51 and -0.43; on telomerase [1] (500μM) it was -1.08 and -0.93; on telomerase [1] (1000μM), -1.14 and -1.23; on telomerase [1] (2000μM) it was -1.39 and -1.63. Moreover, the “YIntercept (line fit of ln(100-%LB) vs # telomere repeats)” value is 3.32 and 3.48 at telomerase [1] (8μM); 3.76 and 3.36 at telomerase [1] (32μM); 4.06 and 3.77 at telomerase [1] (500μM); 4.20 and 4.38 on telomerase [1] (1000μM); 4.11 and 4.80 at telomerase [1] (2000μM). The “ln(100-%LB)” value on telomerase [1] (8μM, telomere repeat 1) was 3.55 and 3.46; at telomerase [1] (8μM, telomere repeat 2) it was 2.86 and 2.72; on telomerase [1] (8μM, telomere repeat 3), 2.16 and 1.97; at telomerase [1] (8μM, telomere repeat 4) it was 1.81 and 1.63; at telomerase [1] (8μM, telomere repeat 5), 1.46 and 1.29; at telomerase [1] (8μM, telomere repeat 6), 1.02 and 0.87. The “ln(100-%LB)” value at telomerase [1] (8μM, telomere repeat 7) was 0.66 and 0.48; at telomerase [1] (8μM, telomere repeat 8), 0.32 and 0.21; on telomerase [1] (32μM, telomere repeat 1), 3.48 and 3.40; at telomerase [1] (32μM, telomere repeat 2), 2.72 and 2.60; at telomerase [1] (32μM, telomere repeat 3), 1.91 and 1.78; on telomerase [1] (32μM, telomere repeat 4) it was 1.53 and 1.42. Moreover, the “ln(100-%LB)” value is 1.15 and 1.06 at telomerase [1] (32μM, telomere repeat 5); 0.66 on telomerase [1] (32μM, telomere repeat 6); 0.23 and 0.18 on telomerase [1] (32μM, telomere repeat 7); 3.07 and 3.05 at telomerase [1] (500μM, telomere repeat 1); 1.89 and 1.90 at telomerase [1] (500μM, telomere repeat 2); 0.66 and 0.65 on telomerase [1] (500μM, telomere repeat 3). Moreover, the “ln(100-%LB)” value at telomerase [1] (1000μM, telomere repeat 1) is 3.08 and 3.19; at telomerase [1] (1000μM, telomere repeat 2), 1.90 and 1.97; at telomerase [1] (1000μM, telomere repeat 3) it was 0.69 and 0.55; at telomerase [1] (2000μM, telomere repeat 1), 2.72 and 3.17; at telomerase [1] (2000μM, telomere repeat 2), 1.32 and 1.54.
For `Cc1cn([C@H]2C[C@H](N=[N+]=[N-])[C@@H](CO)O2)c(=O)[nH]c1=O` [AZT], the “% Primer Extension” value on telomerase [2] (Primer 1, 5µM dNTP) was 6.28%; on telomerase [2] (Primer 1, 50µM dNTP), 12.17%; at telomerase [2] (Primer 1, 500µM dNTP), 12.98%; on telomerase [2] (Primer 2, 5µM dNTP), 0%; on telomerase [2] (Primer 2, 50µM dNTP), 0%; at telomerase [2] (Primer 2, 500µM dNTP), 0%. Moreover, the “% Primer Extension” value on telomerase [2] (Primer 3, 5µM dNTP) is given as 0%; at telomerase [2] (Primer 3, 50µM dNTP) it was 3.43%; at telomerase [2] (Primer 3, 500µM dNTP), 4.38%.
Consider `Nc1ccn([C@H]2C[C@H](O)[C@@H](COP(=O)(O)OP(=O)(O)OP(=O)(O)O)O2)c(=O)n1` [dCTP], for which the “Percent Primer Extension” value at telomerase [2] (Primer 1 (TTAGGG)3, first template base rA3, Mean of three experiments) was 5.85%; at telomerase [2] (Primer 1 (TTAGGG)3, first template base rA3, single experiments n1-n3, listed as dC), 5.75% and 3.98% and 7.81%; at telomerase [2] (Primer 2 (GGTTAG)3, first template base rC1, Mean of three experiments), 0.00%; on telomerase [2] (Primer 2 (GGTTAG)3, first template base rC1, single experiments n1-n3), 0.00%; on telomerase [2] (Primer 3 (AGGGTT)3, first template base rU5, Mean of three experiments) it was 0.00%; at telomerase [2] (Primer 3 (AGGGTT)3, first template base rU5, single experiments n1-n3), 0.00%. The “% Primer Extension” value on telomerase [2] (Primer 1, 5µM dNTP) is reported as 4.15%; on telomerase [2] (Primer 1, 50µM dNTP), 7.81%; on telomerase [2] (Primer 1, 500µM dNTP) it was 8.06%; on telomerase [2] (Primer 2, 5µM dNTP), 0.00%; at telomerase [2] (Primer 2, 50µM dNTP) it was 0.00%; at telomerase [2] (Primer 2, 500µM dNTP), 0.00%. The “% Primer Extension” value is 0.00% at telomerase [2] (Primer 3, 5µM dNTP); 0.00% on telomerase [2] (Primer 3, 50µM dNTP); 0.00% at telomerase [2] (Primer 3, 500µM dNTP).
